Here are results for 8 compounds from PMC11761247, “Antioxidant, Anti-α-Glucosidase, Anti-Tyrosinase, and Anti-Acetylcholinesterase Components from Stem of Rhamnus formosana with Molecular Docking Study” (Antioxidants, 2024).

Experiment [1] can be described thus: ABTS radical scavenging activity. To be noted: for EC50: isolated compounds (Table 5), read-out: SC50 ABTS. As for the experimental part:
The analysis of ABTS was performed according to the previously published method. The ABTS solution (28 mM) was mixed with […] solution (9.6 mM) in a 1:1 ratio (v/v) and allowed to react in the dark at room temperature for 16 h to generate the ABTS radical solution. The ABTS radical solution was then diluted with EtOH until the absorbance at 740 nm reached 0.70 ± 0.02. The tested samples were dissolved in DMSO to prepare stock solutions, which were subsequently diluted to the desired concentrations with EtOH. In a 96-well plate, 190 μL of the diluted ABTS radical solution was mixed with 10 μL of each diluted sample solution. The mixture was allowed to react in the dark at room temperature for 6 min. The absorbance at 740 nm was then measured using an ELISA reader. The ABTS radical scavenging activity was calculated by the following equation:(2) Scavenging rate (%)=(OD0−OD1)/OD0×100 where OD0 is absorbance of the control and OD1 is that of the tested sample.

Experiment [2] can be described thus: DPPH free radical scavenging activity. The note with it: for EC50: isolated compounds (Table 5), read-out: SC50 DPPH. As for the experimental part: DPPH analysis was performed according to the previously published procedure. A 400 μM DPPH radical solution was prepared in EtOH. The tested samples were dissolved in DMSO to prepare stock solutions, which were then diluted to the desired concentrations with EtOH. In a 96-well plate, 100 μL of each diluted tested sample solution was mixed with 100 μL of the DPPH radical solution (200 μM). The mixture was allowed to react in the dark at room temperature for 30 min. After the reaction, the absorbance at 520 nm was measured using an ELISA reader. DPPH radical scavenging activity was calculated by the following equation:(1) Scavenging rate (%)=(OD0−OD1)/OD0 where OD0 is absorbance of the control and OD 1 is that of the tested sample.

Experiment [3] in a line: Ferric reducing antioxidant power (FRAP). As for the experimental part: The analysis was performed using the published method. The working solution was prepared by mixing acetate buffer (pH 3.6), ferric chloride solution (20 mM), and TPTZ solution (10 mM TPTZ in 40 mM HCl) in a 10:1:1 ratio. Then, 900 µL of this solution was warmed to 37 °C and mixed with 100 µL of the diluted sample, blank, or standard in a microcentrifuge tube. The tubes were vortexed and incubated in a dry bath at 37 °C for 40 min. Absorbance was measured at 593 nm. The standard curve was linear from 0 to 100 mM Trolox, and results were expressed as mM TE/g dry weight.

The target in a further experiment is T1, AChE (Electrophorus electricus, UniProt O42275).
T1 construct: purchased Sigma-Aldrich
T1 sequence (O42275 24-633): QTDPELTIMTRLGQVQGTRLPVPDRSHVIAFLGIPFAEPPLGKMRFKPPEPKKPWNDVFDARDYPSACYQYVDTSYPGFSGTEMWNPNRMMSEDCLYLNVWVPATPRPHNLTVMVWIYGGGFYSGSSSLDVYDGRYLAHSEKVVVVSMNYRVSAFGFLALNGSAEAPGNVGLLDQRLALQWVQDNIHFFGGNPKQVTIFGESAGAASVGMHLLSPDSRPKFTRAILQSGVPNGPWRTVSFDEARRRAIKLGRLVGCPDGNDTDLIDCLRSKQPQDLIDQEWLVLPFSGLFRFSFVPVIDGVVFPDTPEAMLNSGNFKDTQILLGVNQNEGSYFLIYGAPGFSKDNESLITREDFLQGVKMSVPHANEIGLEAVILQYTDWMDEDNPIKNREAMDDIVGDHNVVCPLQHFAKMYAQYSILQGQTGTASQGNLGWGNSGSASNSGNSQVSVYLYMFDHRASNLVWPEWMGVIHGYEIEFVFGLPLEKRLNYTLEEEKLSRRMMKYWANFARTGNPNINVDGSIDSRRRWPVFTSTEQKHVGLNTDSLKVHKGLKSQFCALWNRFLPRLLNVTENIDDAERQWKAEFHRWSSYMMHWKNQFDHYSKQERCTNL
Nature of the experiment: biochemical. As for the experimental part: Determination of AChE inhibition was conducted based on the reported method with slight modifications. Sodium phosphate buffer (0.1 M, pH 8.0, 140 µL), test compound solution (20 µL), enzyme solution (15 µL of AChE at 0.2 units/mL), and DTNB (15 mM, 10 µL) were mixed and incubated for 10 min at room temperature. The reaction was then initiated by adding 10 µL of the substrate (AChI, 15 mM).

The nature of experiment [4]: Superoxide radical scavenging activity (NBT/PMS/NADH). To be noted: for EC50: isolated compounds (Table 5), read-out: SC50 Superoxide. How it is done: The superoxide scavenging activity assay was performed based on the published method. The superoxide radical was prepared in a 16 mM Tris-HCl buffer (pH 8.0) containing 50 µL of NBT (300 µM), 50 µL of PMS (120 µM), and 50 µL of different concentrations of the tested sample. The reaction was initiated by adding 50 µL of the NADH (468 µM) solution to the mixture and incubated at room temperature for 5 min. The activity of the samples was determined by calculating the decrease in absorbance measured at 560 nm by the following equation:(3) Scavenging rate (%)=(OD0−OD1)/OD0×100 where OD0 is absorbance of the control and OD1 is that of the tested sample.

For another experiment, the target named is T2, α-glucosidase (Saccharomyces cerevisiae, UniProt P53341).
T2 construct: purchased Sigma-Aldrich
T2 sequence (P53341 whole entry): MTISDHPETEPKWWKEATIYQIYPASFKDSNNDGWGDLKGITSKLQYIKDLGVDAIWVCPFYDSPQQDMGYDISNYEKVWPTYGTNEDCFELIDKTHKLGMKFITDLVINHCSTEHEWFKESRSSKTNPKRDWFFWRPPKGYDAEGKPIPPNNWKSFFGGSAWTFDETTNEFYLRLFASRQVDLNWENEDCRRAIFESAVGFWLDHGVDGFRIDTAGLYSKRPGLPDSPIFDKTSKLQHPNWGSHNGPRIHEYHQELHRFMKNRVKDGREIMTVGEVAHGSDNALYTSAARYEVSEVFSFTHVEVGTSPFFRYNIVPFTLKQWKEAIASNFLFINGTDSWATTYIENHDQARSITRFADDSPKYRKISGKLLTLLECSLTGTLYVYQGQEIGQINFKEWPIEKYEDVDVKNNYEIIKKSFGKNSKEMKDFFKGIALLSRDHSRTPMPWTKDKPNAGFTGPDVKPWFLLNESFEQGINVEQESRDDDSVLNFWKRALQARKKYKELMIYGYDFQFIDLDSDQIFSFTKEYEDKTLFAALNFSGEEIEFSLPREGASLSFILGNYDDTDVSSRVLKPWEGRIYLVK
In words: α-Glucosidase inhibitory activity (p-NPG substrate). It is filed as biochemical.

Setting [5] is: solvent extracts, concentration for 50% free radical scavenging.
Where [6] appears, read: isolated compounds (Table 5), Trolox equivalents.

SMILES strings stand for the structures. Like-named read-outs stand apart in the source and are kept apart here.

On to `Cc1cc(C(C)(C)C)c(O)c(C(C)(C)C)c1` [BHT, butylated hydroxytoluene, reference compound], for which the figures for the EC50 in experiment [1] and in experiment [2] were 37.5 ± 4.31 µM and 708 ± 10.8 µM, respectively. Also, the “SC50 ABTS” value in experiment [1] (setting [5]) is 9.12 ± 1.85 µg/mL. For the same compound, the “SC50 DPPH” value in experiment [2] (setting [5]) amounted to 156.04 ± 14.31 µg/mL. Further, the “TE FRAP” value in experiment [3] (setting [6]) was determined as 5712.61 ± 176.27 mM/g; in experiment [3] (solvent extracts (Table 2), Trolox equivalents in mM per gram of extract), 3196.39 ± 115.26 mM/g.

Take `O=C(/C=C/c1ccc(O)c(O)c1)O[C@@H]1C[C@](O)(C(=O)O)C[C@@H](O)[C@H]1O` [Chlorogenic acid, chlorogenic acid, reference compound]: the IC50 on AChE (isolated compounds (Table 6), read-out: IC50 AChE (converted)) is 303 ± 25.2 µM; on AChE (solvent extracts (Table 3), read-out: IC50 AChE (converted)), 496 µM.

In the case of `Cc1cc(O)c2c(c1)C(=O)c1cccc(O)c1C2=O` [Chrysophanol (4), chrysophanol], the EC50 in experiment [1], in experiment [4] and in experiment [2] was greater than 200 µM in each case. The figures for the 50% inhibitory concentration (IC50) at AChE and against α-glucosidase were greater than 400 µM and 604 ± 44.8 µM, respectively. In experiment [3] (setting [6]), the “TE FRAP” value is less than 1 mM/g.

Take `O=c1cc(-c2ccc(O)c(O)c2)oc2cc(O[C@@H]3O[C@H](CO)[C@@H](O)[C@H](O)[C@H]3O)cc(O)c12` [Cynaroside, reference compound]: the EC50 in experiment [4] was determined as 20 ± 1.7 µM. Also, the “SC50 Superoxide” value in experiment [4] (setting [5]) was 12.03 ± 4.20 µg/mL.

Take `Cc1cc(O)c2c(c1)C(=O)c1cc(O)cc(O)c1C2=O` [Emodin (3), emodin]: the results for the EC50 in experiment [1], in experiment [4] and in experiment [2] were greater than 200 µM, 232 ± 15.9 µM and greater than 200 µM, respectively. Also, the concentration for half-maximal inhibition (IC50) was 77.6 ± 6.28 µM against AChE and 58.9 ± 3.39 µM on α-glucosidase. Further, the “TE FRAP” value in experiment [3] (setting [6]) is given as less than 1 mM/g.

As for `O=c1c(O)c(-c2ccc(O)cc2)oc2cc(O)cc(O)c12` [Kaempferol (1), kaempferol], the EC50 in experiment [1] was determined as 15.3 ± 0.94 µM; in experiment [4], 271 ± 20.7 µM; in experiment [2], 61.7 ± 7.36 µM. The “TE FRAP” value is 1046.16 ± 23.78 mM/g in experiment [3] (setting [6]) and 1046.16 ± 23.78 mM/g in experiment [3] (isolated compounds (Table 5), Trolox equivalents, listed as kaempferol (1)).

As to `COc1cc(O)c2c(c1)C(=O)c1cc(C)cc(O)c1C2=O` [Physcion (5), physcion], the EC50 in experiment [1], in experiment [4] and in experiment [2] was greater than 200 µM each time. The IC50 was 76 ± 1.34 µM at AChE and greater than 800 µM against α-glucosidase. Moreover, the “TE FRAP” value in experiment [3] (setting [6]) was less than 1 mM/g.

As to `O=c1c(O)c(-c2ccc(O)c(O)c2)oc2cc(O)cc(O)c12` [Quercetin (2), quercetin], the EC50 in experiment [1] worked out at 5.7 ± 0.92 µM; in experiment [4], 85.8 ± 4.76 µM; in experiment [2] it was 16.1 ± 2.62 µM. Moreover, the “TE FRAP” value in experiment [3] (setting [6]) stood at 1026.73 ± 16.69 mM/g; in experiment [3] (isolated compounds (Table 5), Trolox equivalents, listed as quercetin (2)), 1026.73 ± 16.69 mM/g.
